Values quoted from earlier work, collected in patent publication US20220370444A1 (priority 2019, published 2022).

Tests used:
TB = settings: after two weeks of oral administration
[1] = not told
[2] = in vivo

## CC(C)/N=c1\cc2n(-c3ccc(Cl)cc3)c3ccccc3nc-2cc1Nc1ccc(Cl)cc1 [clofazimine]
TB
  clinical benefit: no clinical benefit
[1]
  membrane permeability: high
[2]
  absorption in humans after oral administration: 45-62%
